Measured values reported in US20080269237A1, “CARBAMIC ACID COMPOUNDS COMPRISING A PIPERAZINE LINKAGE AS HDAC INHIBITORS” (TOPOTARGET UK LIMITED, priority 2002, published 2008).
Where a name gives a salt, the structure may show the parent alone.

melting point	Structure (SMILES)
152.5 to 153.5 °C	O=C(CCCCCC(=O)N1CCN(C(=O)CCc2c[nH]c3ccccc23)CC1)NO [PX118968, N-Hydroxy-7-{4-[3-(1H-indol-3-yl)propanoyl]-1-piperazinyl}-7-oxoheptanamide]
65 to 67 °C	O=C(CCCCCC(=O)N1CCN(Cc2c[nH]c3ccccc23)CC1)NO [PX118978, N-Hydroxy-7-[4-(1H-indol-3-ylmethyl)-1-piperazinyl]-7-oxoheptanamide]
130 °C	O=C(/C=C/c1cccc(S(=O)(=O)N2CCN(CCOc3ccc4ccccc4c3)CC2)c1)NO [PX118935, (E)-N-Hydroxy-3-[3-({4-[2-(2-naphthyloxy)ethyl]-1-piperazinyl}-sulfonyl)phenyl]-2-propenamide]
149 to 150.5 °C	O=C(CCCCCCC(=O)N1CCN(c2cccc(F)c2)CC1)NO [PX118859, 8-[4-(3-Fluorophenyl)-piperazin-1-yl]-8-oxooctanoic acid hydroxyamide]
185 °C	O=C(/C=C/c1cccc(S(=O)(=O)N2CCN(Cc3ccccc3)CC2)c1)NO [PX118874, (E)-3-{3-[(4-Benzyl-1-piperazinyl)sulfonyl]phenyl}-N-hydroxy-2-propenamide]
215 °C	O=C(/C=C/c1cccc(S(=O)(=O)N2CCN(c3ccc(Cl)cc3)CC2)c1)NO [PX118972, (E)-3-(3-{[4-(4-Chlorophenyl)-1-piperazinyl]sulfonyl}phenyl)-N-hydroxy-2-propenamide]
173 °C	O=C(/C=C/c1cccc(S(=O)(=O)N2CCN(c3cccc(C(F)(F)F)c3)CC2)c1)NO [PX118878, (E)-N-Hydroxy-3-[3-({4-[3-(trifluoromethyl)phenyl]-1-piperazinyl}sulfonyl)phenyl]-2-propenamide]
147 to 147.5 °C	C/C(=N\O)c1ccc(N2CCN(C(=O)CCCCCCC(=O)NO)CC2)cc1 [PX118903, 8-{4-[4-(1-Hydroxyimino-ethyl)-phenyl]-piperazin-1-yl}-8-oxo octanoic acid hydroxyamide]
165 to 166 °C	O=C(CCCCCC(=O)N1CCN(CCCc2c[nH]c3ccccc23)CC1)NO [PX118970, N-Hydroxy-7-{4-[3-(1H-indol-3-yl)propyl]-1-piperazinyl}-7-oxoheptanamide]
122 to 125 °C	COc1ccc2[nH]cc(CCN3CCN(C(=O)CCCCCCC(=O)NO)CC3)c2c1.O=C(O)C(=O)O
119 to 121 °C	O=C(CCCCCC(=O)N1CCN(c2ccc(Cl)cc2)CC1)NO [PX118991, 7-[4-(4-Chlorophenyl)-1-piperazinyl]-N-hydroxy-7-oxoheptanamide]
119 to 120 °C	O=C(CCCCCC(=O)N1CCN(c2ccc(F)cc2)CC1)NO [PX118990, 7-[4-(4-Fluorophenyl)-1-piperazinyl]-N-hydroxy-7-oxoheptanamide]
139 to 140.5 °C	O=C(CCCCCCC(=O)N1CCN(C(=O)COc2ccc3ccccc3c2)CC1)NO [PX118929, N-Hydroxy-8-{4-[2-(2-naphthyloxy)acetyl]-1-piperazinyl}-8-oxooctanamide]
178 °C	O=C(/C=C/c1cccc(S(=O)(=O)N2CCN(C/C=C/c3ccccc3)CC2)c1)NO [PX118870, (E)-N-Hydroxy-3-[3-({4-[(E)-3-phenyl-2-propenyl]-1-piperazinyl}sulfonyl)phenyl]-2-propenamide]
118 to 120 °C	O=C(CCCCCCC(=O)N1CCN(CCc2ccc3ccccc3c2)CC1)NO [PX118908, 8-[4-(2-Naphthalen-2-yl-ethyl)-piperazin-1-yl]-8-oxo octanoic acid hydroxyamide]
117 to 118 °C	O=C(CCCCCCC(=O)N1CCN(CC(c2ccccc2)c2ccccc2)CC1)NO [PX118909, 8-[4-(2,2-Diphenyl-ethyl)-piperazin-1-yl]-8-oxo octanoic acid hydroxyamide]
117 °C (dec.)	O=C(/C=C/c1cccc(S(=O)(=O)N2CCN(CC(c3ccccc3)c3ccccc3)CC2)c1)NO [PX118913, (E)-3-(3-{[4-(2,2-Diphenylethyl)-1-piperazinyl]sulfonyl}phenyl)-N-hydroxy-2-propenamide]
176 °C	O=C(/C=C/c1cccc(S(=O)(=O)N2CCN(c3ccccc3F)CC2)c1)NO [PX118877, (E)-3-(3-{[4-(2-Fluorophenyl)-1-piperazinyl]sulfonyl}phenyl)-N-hydroxy-2-propenamide]
119.5 to 120.5 °C	Cc1ccc(N2CCN(C(=O)CCCCCC(=O)NO)CC2)cc1C [PX118994, 7-[4-(3,4-Dimethylphenyl)-1-piperazinyl]-N-hydroxy-7-oxoheptanamide]
103 to 105 °C	CN(C)c1ccc(CCN2CCN(C(=O)CCCCCCC(=O)NO)CC2)cc1 [PX118928, 8-{4-[4-(Dimethylamino)phenethyl]-1-piperazinyl}-N-hydroxy-8-oxooctanamide]

melting point	Structure (SMILES)
196 to 197 °C	O=C(/C=C/c1ccc(S(=O)(=O)N2CCN(c3ccccc3F)CC2)cc1)NO [PX118891, (E)-3-(4-{[4-(2-Fluorophenyl)-1-piperazinyl]sulfonyl}phenyl)-N-hydroxy-2-propenamide]
178 to 179 °C	O=C(/C=C/c1ccc(S(=O)(=O)N2CCN(c3cccc(C(F)(F)F)c3)CC2)cc1)NO [PX118937, (E)-N-Hydroxy-3-[4-({4-[3-(trifluoromethyl)phenyl]-1-piperazinyl}-sulfonyl)phenyl]-2-propenamide]
189 °C	CN(C)c1ccc(CCN2CCN(S(=O)(=O)c3cccc(/C=C/C(=O)NO)c3)CC2)cc1 [PX118951, (E)-3-[3-({4-[4-(Dimethylamino)phenethyl]-1-piperazinyl}sulfonyl)phenyl]-N-hydroxy-2-propenamide]
134 to 136 °C	O=C(CCCCCCC(=O)N1CCN(c2ccccc2)CC1)NO [PX117402, 8-Oxo-8-(4-phenyl-piperazin-1-yl)-octanoic acid hydroxyamide]
199 to 200 °C	COc1cccc(N2CCN(S(=O)(=O)c3ccc(/C=C/C(=O)NO)cc3)CC2)c1 [PX118892, (E)-N-Hydroxy-3-(4-{[4-(3-methoxyphenyl)-1-piperazinyl]sulfonyl}phenyl)-2-propenamide]
172 °C	O=C(/C=C/c1cccc(S(=O)(=O)N2CCN(Cc3ccc4c(c3)OCO4)CC2)c1)NO [PX118873, (E)-3-(3-{[4-(1,3-Benzodioxol-5-ylmethyl)-1-piperazinyl]sulfonyl}-phenyl)-N-hydroxy-2-propenamide]
140 to 141 °C	O=C(CCCCCCC(=O)N1CCN(C(=O)Cc2csc3ccccc23)CC1)NO [PX118967, 8-{4-[2-(1-Benzothiophen-3-yl)acetyl]-1-piperazinyl}-N-hydroxy-8-oxooctanamide]
125 to 126 °C	O=C(CCCCCC(=O)N1CCN(c2ccc(Cl)c(Cl)c2)CC1)NO [PX118989, 7-[4-(3,4-Dichlorophenyl)-1-piperazinyl]-N-hydroxy-7-oxoheptanamide]
86 to 88 °C	O=C(CCCCCC(=O)N1CCN(C(=O)c2c[nH]c3ccccc23)CC1)NO [PX118969, N-Hydroxy-7-[4-(1H-indol-3-ylcarbonyl)-1-piperazinyl]-7-oxoheptanamide]
193 °C	O=C(/C=C/c1cccc(S(=O)(=O)N2CCN(c3ccc(Cl)c(Cl)c3)CC2)c1)NO [PX118971, (E)-3-(3-{[4-(3,4-Dichlorophenyl)-1-piperazinyl]sulfonyl}phenyl)-N-hydroxy-2-propenamide]
196 °C	COc1cccc(N2CCN(S(=O)(=O)c3cccc(/C=C/C(=O)NO)c3)CC2)c1 [PX118872, (E)-N-hydroxy-3-(3-{[4(3-methoxyphenyl)piperazinyl]sulfonyl}phenyl)-2-propenamide]
199 to 200 °C	O=C(/C=C/c1ccc(S(=O)(=O)N2CCN(c3ccc([N+](=O)[O-])cc3)CC2)cc1)NO [PX118918, (E)-N-Hydroxy-3-(4-{[4-(4-nitrophenyl)-1-piperazinyl]sulfonyl}phenyl)-2-propenamide]
75 to 76 °C	Cc1cccc(N2CCN(C(=O)CCCCCCC(=O)NO)CC2C)c1 (stereo not shown) [PX118899, 8-(3-Methyl-4-m-tolyl-piperazin-1-yl)-8-oxo octanoic acid hydroxyamide]
126 to 128 °C	O=C(CCCCCCC(=O)N1CCN(c2cccc(C(F)(F)F)c2)CC1)NO [PX118860, 8-Oxo-8-[4-(3-trifluoromethylphenyl)-piperazin-1-yl]-octanoic acid hydroxyamide]
203 °C (dec.)	C=C(Cl)c1ccc(N2CCN(S(=O)(=O)c3cccc(/C=C/C(=O)NO)c3)CC2)cc1 [PX118933, (E)-3-[3-({4-[4-(1-Chlorovinyl)phenyl]-1-piperazinyl}sulfonyl)phenyl]-N-hydroxy-2-propenamide]
200 °C	O=C(/C=C/c1cccc(S(=O)(=O)N2CCN(c3ncccn3)CC2)c1)NO [PX118894, (E)-N-Hydroxy-3-(3{-[4-(2-pyrimidinyl)-1-piperazinyl]sulfonyl}-phenyl)-2-propenamide]
184 °C	O=C(/C=C/c1cccc(S(=O)(=O)N2CCN(CCc3ccc4ccccc4c3)CC2)c1)NO [PX118914, (E)-N-Hydroxy-3-[3-({4-[2-(2naphthyl)ethyl]-1-piperazinyl}sulfonyl)phenyl]-2-propenamide]
178 °C	O=C(/C=C/c1cccc(S(=O)(=O)N2CCN(CCOc3cccc4ccccc34)CC2)c1)NO [PX118934, (E)-N-Hydroxy-3-[3-({4-[2-(1-naphthyloxy)ethyl]-1-piperazinyl}-sulfonyl)phenyl]-2-propenamide]
125 to 126 °C	O=C(/C=C/c1ccc(S(=O)(=O)N2CCN(C(c3ccc(F)cc3)c3ccc(F)cc3)CC2)cc1)NO [PX118965, (E)-3-[4-({4-[Bis(4-fluorophenyl)methyl]-1-piperazinyl}sulfonyl)phenyl]-N-hydroxy-2-propenamide]
118 to 122 °C	O=C(CCCCCC(=O)N1CCN(c2ccccn2)CC1)NO (as salt: oxalate) [PX118845, 7-Oxo-7-(4-pyridin-2-yl-piperazin-1-yl]-heptanoic acid hydroxyamide oxalate]
